Experimental findings from patent US20240317777A1, “NOVEL MACROCYCLIC AMINOPYRAZOLE COMPOUNDS AS CDK2 INHIBITORS” (Accutar Biotechnology Inc., priority 2023, published 2024) are described below.

The target in one assay is CDK9-CYCLIN T1 (Homo sapiens, UniProt P50750). Briefly: CDK protein kinase inhibition by ADP-Glo assay, CDK9-CYCLIN T1. Type of assay: biochemical. Particulars: for IC50: ADP-Glo, 1000 μM ATP, read-out: CDK9-CYCLINT1, IC50; for CDK2 Fold selectivity, CDK9: CDK2 versus CDK9. In short, it runs like this: (§1)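 Enzyme reactions contain 1000 μM ATP and 5 mM MgCl2 in HEPES pH 7.5 with BSA, Triton X-100, DTT, orthovanadate and beta-glycerophosphate. They proceed at 22° C before ADP-Glo luminescent detection of ADP produced.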
A general note: In ADP-Glo the light output rises with the ADP produced.

Assay [1] has as its system Phospho-Rb (Ser807/811) in OVCAR3 cells. Description: Phospho-Rb expression inhibition in OVCAR3 cells quantified by In Cell Western. The class given is cell-based. Particulars: Homo sapiens, OVCAR-3, 24 hours, read-out: OVCAR-3 pRb IC50. In short, it runs like this: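 In-cell western: after 24 h compound exposure at 37° C, fixed OVCAR3 cells co-stained for pRb Ser807/811 (800 nm channel) and total Rb (680 nm channel), imaged by LI-COR Odyssey.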

The subject of a further assay is CCNE1-normal SKOV3 cells. Briefly: Cell growth inhibition of CCNE1-normal SKOV3 cells (CellTiter-Glo). Type of assay: cell-based. Particulars: Homo sapiens, SK-OV-3, 144 h, 6 days. In a few lines: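 Growth was measured by CellTiter-Glo luminescence after 6 days' compound exposure at 37 °C. Cells were plated one day before dosing at 1000 per well in medium with 10% FBS, and compounds were diluted from DMSO stocks.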

A further assay concerns the target CDK6-CYCLIN D3 (Homo sapiens, UniProt Q00534). Description: CDK protein kinase inhibition by ADP-Glo assay, CDK6-CYCLIN D3. Type of assay: biochemical. The note with it: for IC50: ADP-Glo, 1000 μM ATP, read-out: CDK6-CYCLIND3, IC50; for CDK2 Fold selectivity, CDK6: CDK2 versus CDK6. In short, it runs like this:
as §1

The subject of assay [2] is CCNE1-amplified OVCAR3 cells. Briefly: Cell growth inhibition of CCNE1-amplified OVCAR3 cells (CellTiter-Glo). The note with it: Homo sapiens, OVCAR-3, 144 h, 6 days. The class given is cell-based. In short, it runs like this:
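Growth read-out was CellTiter-Glo luminescence, taken after 10 min at room temperature at the end of a 6-day compound exposure at 37 °C. Compounds were diluted from DMSO stocks across various concentrations.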
For orientation: ATP-based viability assays read luminescence as a measure of living cells.

In a further assay the target is CDK2-CYCLIN E1 (Homo sapiens, UniProt P24941). Briefly: CDK protein kinase inhibition by ADP-Glo assay, CDK2-CYCLIN E1. The note with it: ADP-Glo, 1000 μM ATP, read-out: CDK2-CYCLINE, IC50. The class given is biochemical. In short, it runs like this: as §1
A further assay deals with CDK4-CYCLIN D1 (Homo sapiens, UniProt P11802). Briefly: CDK protein kinase inhibition by ADP-Glo assay, CDK4-CYCLIN D1. The class given is biochemical. Particulars: for IC50: ADP-Glo, 1000 μM ATP, read-out: CDK4-CYCLIND1, IC50; for CDK2 Fold selectivity, CDK4: CDK2 versus CDK4. In short, it runs like this: as §1
The target of another assay is CDK1-CYCLIN B (Homo sapiens, UniProt P06493). Briefly: CDK protein kinase inhibition by ADP-Glo assay, CDK1-CYCLIN B. The class given is biochemical. Particulars: for IC50: ADP-Glo, 1000 μM ATP, read-out: CDK1-CYCLINB, IC50; for CDK2 Fold selectivity, CDK1: CDK2 versus CDK1. In a few lines: as §1

Like-named read-outs stand apart in the source and are kept apart here.

By IC50 is commonly meant the concentration at which inhibition is half-maximal.

Sequence of CDK9-CYCLIN T1 (P50750 whole entry): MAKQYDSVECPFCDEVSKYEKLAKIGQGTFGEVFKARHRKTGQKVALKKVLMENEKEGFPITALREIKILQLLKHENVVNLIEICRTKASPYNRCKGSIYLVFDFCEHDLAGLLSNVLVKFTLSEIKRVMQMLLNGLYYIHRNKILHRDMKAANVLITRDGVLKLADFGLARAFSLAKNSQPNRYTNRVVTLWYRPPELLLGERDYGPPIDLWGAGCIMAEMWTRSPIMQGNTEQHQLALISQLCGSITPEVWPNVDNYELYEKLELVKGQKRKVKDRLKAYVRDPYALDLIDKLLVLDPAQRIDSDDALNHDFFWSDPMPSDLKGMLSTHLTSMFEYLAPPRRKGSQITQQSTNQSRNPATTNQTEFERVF
Sequence of CDK9-CYCLIN T1 (O60563 whole entry partner): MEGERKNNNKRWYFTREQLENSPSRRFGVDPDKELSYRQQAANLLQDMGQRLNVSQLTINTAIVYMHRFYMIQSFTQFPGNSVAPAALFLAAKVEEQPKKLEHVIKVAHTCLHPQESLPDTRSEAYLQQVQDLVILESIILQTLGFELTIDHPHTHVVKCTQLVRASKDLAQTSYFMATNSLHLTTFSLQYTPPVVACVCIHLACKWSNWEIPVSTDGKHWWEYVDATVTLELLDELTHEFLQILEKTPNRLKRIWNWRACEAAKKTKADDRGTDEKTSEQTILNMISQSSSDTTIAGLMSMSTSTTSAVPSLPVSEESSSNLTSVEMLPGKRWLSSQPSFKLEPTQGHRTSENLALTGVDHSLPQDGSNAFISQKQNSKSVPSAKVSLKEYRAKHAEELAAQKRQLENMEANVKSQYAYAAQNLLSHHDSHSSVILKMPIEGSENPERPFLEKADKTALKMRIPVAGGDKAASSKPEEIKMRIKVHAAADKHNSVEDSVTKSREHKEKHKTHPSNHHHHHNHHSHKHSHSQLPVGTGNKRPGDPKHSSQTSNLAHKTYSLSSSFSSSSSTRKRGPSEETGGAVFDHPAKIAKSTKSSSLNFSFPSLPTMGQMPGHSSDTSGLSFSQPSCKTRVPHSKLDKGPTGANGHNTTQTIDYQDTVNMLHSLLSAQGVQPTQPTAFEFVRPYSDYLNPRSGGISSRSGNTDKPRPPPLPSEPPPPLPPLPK
Sequence of CDK4-CYCLIN D1 (P11802 whole entry): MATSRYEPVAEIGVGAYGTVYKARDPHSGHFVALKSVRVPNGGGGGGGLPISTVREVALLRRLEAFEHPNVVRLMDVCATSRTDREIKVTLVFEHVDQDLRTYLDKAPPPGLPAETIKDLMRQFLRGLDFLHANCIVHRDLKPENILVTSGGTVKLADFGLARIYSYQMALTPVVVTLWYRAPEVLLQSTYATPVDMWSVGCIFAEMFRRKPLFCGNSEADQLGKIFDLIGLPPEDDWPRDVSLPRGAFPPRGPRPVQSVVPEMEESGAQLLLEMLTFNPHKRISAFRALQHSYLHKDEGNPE
Sequence of CDK4-CYCLIN D1 (P24385 whole entry partner): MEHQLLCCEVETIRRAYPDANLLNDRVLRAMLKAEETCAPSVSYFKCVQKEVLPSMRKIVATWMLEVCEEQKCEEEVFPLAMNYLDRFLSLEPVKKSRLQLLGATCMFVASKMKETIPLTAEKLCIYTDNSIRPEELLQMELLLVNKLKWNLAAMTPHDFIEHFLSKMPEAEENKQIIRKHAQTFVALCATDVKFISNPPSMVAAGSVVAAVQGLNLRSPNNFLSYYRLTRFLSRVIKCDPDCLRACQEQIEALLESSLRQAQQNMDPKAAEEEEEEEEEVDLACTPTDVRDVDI
Sequence of CDK6-CYCLIN D3 (Q00534 whole entry): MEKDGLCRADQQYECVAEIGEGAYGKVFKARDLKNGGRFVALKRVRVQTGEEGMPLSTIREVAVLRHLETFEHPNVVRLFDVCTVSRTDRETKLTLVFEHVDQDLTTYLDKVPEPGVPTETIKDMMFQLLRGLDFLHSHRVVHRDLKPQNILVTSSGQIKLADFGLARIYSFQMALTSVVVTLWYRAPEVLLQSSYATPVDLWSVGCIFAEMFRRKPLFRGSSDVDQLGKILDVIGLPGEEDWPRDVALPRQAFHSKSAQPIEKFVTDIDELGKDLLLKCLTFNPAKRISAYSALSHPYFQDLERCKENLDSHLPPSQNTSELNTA
Sequence of CDK6-CYCLIN D3 (P30281 whole entry partner): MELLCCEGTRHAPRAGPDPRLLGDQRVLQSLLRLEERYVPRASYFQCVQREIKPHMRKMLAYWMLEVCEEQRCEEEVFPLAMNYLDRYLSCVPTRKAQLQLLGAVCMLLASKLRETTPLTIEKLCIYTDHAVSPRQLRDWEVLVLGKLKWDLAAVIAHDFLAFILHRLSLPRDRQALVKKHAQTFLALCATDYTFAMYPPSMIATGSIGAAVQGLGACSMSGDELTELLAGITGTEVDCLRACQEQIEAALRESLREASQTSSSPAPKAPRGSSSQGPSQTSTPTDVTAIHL
Sequence of CDK1-CYCLIN B (P06493 whole entry): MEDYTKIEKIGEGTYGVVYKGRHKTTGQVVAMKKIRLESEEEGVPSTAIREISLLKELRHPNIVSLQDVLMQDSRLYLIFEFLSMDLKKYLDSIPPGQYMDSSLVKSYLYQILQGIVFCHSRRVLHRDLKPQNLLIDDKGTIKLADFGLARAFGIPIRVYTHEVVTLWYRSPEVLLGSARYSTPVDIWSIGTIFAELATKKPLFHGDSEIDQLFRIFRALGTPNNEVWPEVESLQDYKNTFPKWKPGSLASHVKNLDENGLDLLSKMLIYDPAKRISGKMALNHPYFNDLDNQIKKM
Sequence of CDK1-CYCLIN B (P14635 whole entry partner): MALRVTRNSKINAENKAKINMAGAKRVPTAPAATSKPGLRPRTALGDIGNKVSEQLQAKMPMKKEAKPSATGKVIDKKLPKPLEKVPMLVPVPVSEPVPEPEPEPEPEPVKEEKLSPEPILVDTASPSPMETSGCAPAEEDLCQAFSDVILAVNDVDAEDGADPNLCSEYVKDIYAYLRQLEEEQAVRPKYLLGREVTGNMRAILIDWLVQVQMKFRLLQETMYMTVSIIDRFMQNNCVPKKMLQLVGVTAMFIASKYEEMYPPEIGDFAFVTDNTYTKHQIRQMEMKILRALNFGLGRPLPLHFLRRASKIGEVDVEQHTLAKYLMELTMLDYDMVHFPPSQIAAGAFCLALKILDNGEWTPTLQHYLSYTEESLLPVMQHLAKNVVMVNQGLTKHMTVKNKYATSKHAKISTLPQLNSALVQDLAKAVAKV

As to `O=C1NC2CC(/C=C/c3cc(ccn3)Nc3cc(n[nH]3)[C@H]3CC[C@H](C3)O1)C2` [Compound 172, (1^1S,1^3R,2^4Z,7^1R,7^3S,5E)-2^1H-10-oxa-3,8-diaza-4(4,2)-pyridina-2(3,5)-pyrazola-1(1,3)-cyclopentana-7(1,3)-cyclobutanacyclodecaphan-5-en-9-one], the IC50 is at most 0.01 µM on CDK9-CYCLIN T1 (Table 25); at most 0.002 µM in assay [1]; 0.01 to 0.05 µM in the assay on CCNE1-normal SKOV3 cells; 0.01 to 0.05 µM on CDK6-CYCLIN D3 (Table 25); 0.002 to 0.01 µM in assay [2]; at most 0.01 µM on CDK2-CYCLIN E1 (Table 25). The IC50 at CDK4-CYCLIN D1 (Table 25) and at CDK1-CYCLIN B (Table 25) was at most 0.01 µM each time. Further, at CDK9-CYCLIN T1 (Table 26), the “CDK2 Fold selectivity, CDK9” value is given as “E (E, <20)”. The “CDK2 Fold selectivity, CDK6” value at CDK6-CYCLIN D3 (Table 26) was “E (E, <20)”. In addition, the “CDK2 Fold selectivity, CDK4” value at CDK4-CYCLIN D1 (Table 26) is listed as “E (E, <20)”. Moreover, the “CDK2 Fold selectivity, CDK1” value on CDK1-CYCLIN B (Table 26) is “E (E, <20)”.

For the compound `O=C1N[C@H]2C[C@@H](CC(F)(F)c3cc(ccn3)Nc3cc(n[nH]3)[C@H]3CC[C@H](C3)O1)C2` (single isomer, unassigned) [Compound 170, (1^1S,1^3R,7^1S,7^3R,Z)-5,5-difluoro-2^1H-10-oxa-3,8-diaza-4(4,2)-pyridina-2(3,5)-pyrazola-1(1,3)-cyclopentana-7(1,3)-cyclobutanacyclodecaphan-9-one], the IC50 was 0.01 to 0.05 µM on CDK9-CYCLIN T1 (Table 31); 0.002 to 0.01 µM in assay [1]; 0.05 to 0.25 µM in the assay on CCNE1-normal SKOV3 cells; 0.01 to 0.05 µM at CDK6-CYCLIN D3 (Table 31); 0.002 to 0.01 µM in assay [2]; at most 0.01 µM on CDK2-CYCLIN E1 (Table 31). Moreover, the IC50 at CDK4-CYCLIN D1 (Table 31) is 0.01 to 0.05 µM; at CDK1-CYCLIN B (Table 31), at most 0.01 µM. Also, the “CDK2 Fold selectivity, CDK9” value at CDK9-CYCLIN T1 (Table 32) was “E (E, <20)”. In addition, the “CDK2 Fold selectivity, CDK6” value at CDK6-CYCLIN D3 (Table 32) is “E (E, <20)”. Also, the “CDK2 Fold selectivity, CDK4” value on CDK4-CYCLIN D1 (Table 32) was “E (E, <20)”. The “CDK2 Fold selectivity, CDK1” value on CDK1-CYCLIN B (Table 32) is “E (E, <20)”.

As for `C[C@H]1CC[C@H](C)Oc2cc(ccn2)Nc2cc(n[nH]2)[C@H]2CC[C@H](C2)OC(=O)N1` [compound 162], the IC50 was 0.1 to 0.5 µM at CDK9-CYCLIN T1 (Table 21); 0.002 to 0.01 µM in assay [1]; 0.25 to 1.25 µM in the assay on CCNE1-normal SKOV3 cells; 0.1 to 0.5 µM at CDK6-CYCLIN D3 (Table 21); 0.01 to 0.05 µM in assay [2]; at most 0.01 µM on CDK2-CYCLIN E1 (Table 21). Moreover, the IC50 fell in the range of 0.1 to 0.5 µM at CDK4-CYCLIN D1 (Table 21) and 0.01 to 0.05 µM on CDK1-CYCLIN B (Table 21).

For the compound `C[C@@H]1CC[C@H](C)Oc2cc(ccn2)Nc2cc(n[nH]2)[C@H]2CC[C@H](C2)OC(=O)N1` [compound 163], the IC50 on CDK9-CYCLIN T1 (Table 23) is 0.1 to 0.5 µM; in assay [1] it was 0.01 to 0.05 µM; with CCNE1-normal SKOV3 cells it was 0.25 to 1.25 µM; on CDK6-CYCLIN D3 (Table 23), 0.1 to 0.5 µM; in assay [2], 0.01 to 0.05 µM; at CDK2-CYCLIN E1 (Table 23) it was at most 0.01 µM. Besides, the IC50 was 0.1 to 0.5 µM on CDK4-CYCLIN D1 (Table 23) and 0.05 to 0.1 µM on CDK1-CYCLIN B (Table 23).

Take `O=C1NCCCCC(F)(F)c2cc(ccn2)Nc2cc([nH]n2)[C@H]2CC[C@H](C2)O1` [Compound 64, (1^1S,1^3R,Z)-5,5-difluoro-2^1H-12-oxa-3,10-diaza-4(4,2)-pyridina-2(3,5)-pyrazola-1(1,3)-cyclopentanacyclododecaphan-11-one]: the IC50 was 0.01 to 0.05 µM on CDK9-CYCLIN T1 (Table 19); at most 0.002 µM in assay [1]; 0.05 to 0.25 µM in the assay on CCNE1-normal SKOV3 cells; 0.01 to 0.05 µM at CDK6-CYCLIN D3 (Table 19); 0.002 to 0.01 µM in assay [2]; at most 0.01 µM at CDK2-CYCLIN E1 (Table 19). Further, the values for the IC50 at CDK4-CYCLIN D1 (Table 19) and at CDK1-CYCLIN B (Table 19) were 0.01 to 0.05 µM and at most 0.01 µM, respectively. Further, on CDK9-CYCLIN T1 (Table 20), the “CDK2 Fold selectivity, CDK9” value is “E (E, <20)”. In addition, at CDK6-CYCLIN D3 (Table 20), the “CDK2 Fold selectivity, CDK6” value is “D (D, >20 and ≤50)”. For the same compound, the “CDK2 Fold selectivity, CDK4” value on CDK4-CYCLIN D1 (Table 20) was “D (D, >20 and ≤50)”. For the same compound, the “CDK2 Fold selectivity, CDK1” value at CDK1-CYCLIN B (Table 20) is “E (E, <20)”.

On to `C[C@@H]1OCC[C@H](C)NC(=O)O[C@@H]2CC[C@@H](C2)c2cc([nH]n2)Nc2ccnc1c2` [compound 159], for which the IC50 on CDK9-CYCLIN T1 (Table 23) is 0.05 to 0.1 µM; in assay [1] it was 0.002 to 0.01 µM; in the assay on CCNE1-normal SKOV3 cells it was 0.05 to 0.25 µM; at CDK6-CYCLIN D3 (Table 23), 0.05 to 0.1 µM; in assay [2], 0.002 to 0.01 µM; at CDK2-CYCLIN E1 (Table 23) it was at most 0.01 µM. In addition, the concentration for half-maximal inhibition (IC50) at CDK4-CYCLIN D1 (Table 23) and on CDK1-CYCLIN B (Table 23) was 0.01 to 0.05 µM throughout.

Consider `C[C@H]1CCO[C@H](C)c2cc(ccn2)Nc2cc(n[nH]2)[C@H]2CC[C@H](C2)OC(=O)N1` [compound 158], for which the IC50 at CDK9-CYCLIN T1 (Table 23) is over 0.5 µM; in assay [1], 0.01 to 0.05 µM; in the assay on CCNE1-normal SKOV3 cells, 0.25 to 1.25 µM; on CDK6-CYCLIN D3 (Table 23) it was over 0.5 µM; in assay [2], 0.01 to 0.05 µM; at CDK2-CYCLIN E1 (Table 23), 0.01 to 0.05 µM. For the same compound, the IC50 at CDK4-CYCLIN D1 (Table 23) and on CDK1-CYCLIN B (Table 23) was 0.1 to 0.5 µM each time.

Take `C[C@@H]1CCCOc2cncc(c2)Nc2cc(n[nH]2)[C@H]2CC[C@H](C2)OC(=O)N1` [Compound 120, (1^1S,1^3R,9R,Z)-9-methyl-2^1H-5,12-dioxa-3,10-diaza-4(3,5)-pyridina-2(3,5)-pyrazola-1(1,3)-cyclopentanacyclododecaphan-11-one]: the IC50 on CDK9-CYCLIN T1 (Table 13) was 0.05 to 0.1 µM; in assay [1] it was 0.002 to 0.01 µM; in the assay on CCNE1-normal SKOV3 cells it was over 1.25 µM; at CDK6-CYCLIN D3 (Table 13), 0.01 to 0.05 µM; in assay [2], 0.01 to 0.05 µM; at CDK2-CYCLIN E1 (Table 13) it was at most 0.01 µM. For the same compound, the 50% inhibitory concentration (IC50) lay within 0.05 to 0.1 µM on CDK4-CYCLIN D1 (Table 13) and 0.01 to 0.05 µM on CDK1-CYCLIN B (Table 13). The “CDK2 Fold selectivity, CDK9” value on CDK9-CYCLIN T1 (Table 14) was “C (C, >50 and ≤100)”. Also, at CDK6-CYCLIN D3 (Table 14), the “CDK2 Fold selectivity, CDK6” value is on record as “E (E, <20)”. Also, on CDK4-CYCLIN D1 (Table 14), the “CDK2 Fold selectivity, CDK4” value was “C (C, >50 and ≤100)”. The “CDK2 Fold selectivity, CDK1” value at CDK1-CYCLIN B (Table 14) was “E (E, <20)”.

For `C[C@@H]1NC(=O)O[C@@H]2CC[C@@H](C2)c2cc([nH]n2)Nc2ccnc(c2)COCC1(F)F` [compound 164], the IC50 is at most 0.01 µM at CDK9-CYCLIN T1 (Table 31); at most 0.002 µM in assay [1]; 0.01 to 0.05 µM in the assay on CCNE1-normal SKOV3 cells; 0.01 to 0.05 µM at CDK6-CYCLIN D3 (Table 31); at most 0.002 µM in assay [2]; at most 0.01 µM at CDK2-CYCLIN E1 (Table 31). Besides, the IC50 at CDK4-CYCLIN D1 (Table 31) and at CDK1-CYCLIN B (Table 31) was at most 0.01 µM each time.
